The source made the active and inactive calls. No cut-off for these calls is given here.
Experiments:
[1] = target: Transcription factor p65 (Homo sapiens) (UniProt Q04206); experiment: Inhibition of NF-kappaB p65-mediated TNFalpha release in HSV1 KOS infected human IOBA-NHC cells at 40 uM after 24 hrs by ELISA; format: cell-based
J774.A1 [2] = experiment: Immunomodulatory activity in LPS-stimulated mouse J744A.1 cells assessed as increase of TLR4 gene expression at 40 uM after 6 hrs by RT-PCR analysis relative to control; format: functional
[3] = target: Transcription factor p65 (Homo sapiens) (UniProt Q04206); experiment: Effect on NF-kappaB p65-mediated IL-6 release in human HCLE cells at 40 uM after 24 hrs by ELISA; format: cell-based
[4] = target: Transcription factor p65 (Homo sapiens) (UniProt Q04206); experiment: Increase of NF-kappaB p65-mediated IL-8 release in human HCLE cells at 40 uM after 24 hrs by ELISA; format: cell-based
[5] = target: Transcription factor p65 (Homo sapiens) (UniProt Q04206); experiment: Effect on NF-kappaB p65-mediated TNFalpha release in human IOBA-NHC cells at 40 uM after 24 hrs by ELISA; format: cell-based
[6] = Immunomodulatory activity in HSV1 KOS infected human HCLE cells assessed as increase of CSF2 (GM-CSF) gene expression at 40 uM after 6 hrs by RT-PCR analysis relative to control; format: functional
J774.A1 [7] = experiment: Immunomodulatory activity in LPS-stimulated mouse J744A.1 cells assessed as increase of Socs2 gene expression at 40 uM after 6 hrs by RT-PCR analysis relative to control; format: functional
[8] = target: Transcription factor p65 (Mus musculus) (UniProt Q04207); experiment: Effect on NF-kappaB p65 activation in LPS-stimulated mouse J774A.1 cells assessed as NF-kappaB p65 translocation at 40 uM after 24 hrs by indirect immunofluorescence assay
Chain of Transcription factor p65 (Mus musculus) (Q04207 whole entry): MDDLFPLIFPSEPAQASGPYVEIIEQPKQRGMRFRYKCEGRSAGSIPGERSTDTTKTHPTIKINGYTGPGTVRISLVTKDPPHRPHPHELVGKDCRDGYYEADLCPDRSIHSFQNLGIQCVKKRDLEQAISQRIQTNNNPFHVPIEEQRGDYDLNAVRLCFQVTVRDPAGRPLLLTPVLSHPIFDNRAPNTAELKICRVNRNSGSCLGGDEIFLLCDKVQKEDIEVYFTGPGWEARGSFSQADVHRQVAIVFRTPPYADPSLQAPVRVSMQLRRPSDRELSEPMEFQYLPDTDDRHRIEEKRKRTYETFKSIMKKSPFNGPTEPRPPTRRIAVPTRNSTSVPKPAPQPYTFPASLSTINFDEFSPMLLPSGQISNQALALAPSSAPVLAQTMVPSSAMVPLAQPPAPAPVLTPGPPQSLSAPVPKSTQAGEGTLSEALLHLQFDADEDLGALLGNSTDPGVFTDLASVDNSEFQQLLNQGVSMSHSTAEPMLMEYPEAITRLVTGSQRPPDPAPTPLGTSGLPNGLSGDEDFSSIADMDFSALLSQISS

[9] = target: Transcription factor p65 (Homo sapiens) (UniProt Q04206); experiment: Inhibition of NF-kappaB p65 activation in HSV1 KOS infected human HCLE cells assessed as reduction of NF-kappaB p65 translocation at 40 uM after 24 hrs by indirect immunofluorescence assay; format: cell-based
[10] = target: Transcription factor p65 (Homo sapiens) (UniProt Q04206); experiment: Inhibition of NF-kappaB p65-mediated IL-8 release in HSV1 KOS infected human IOBA-NHC cells at 40 uM after 24 hrs by ELISA; format: cell-based
J774.A1 [11] = experiment: Immunomodulatory activity in LPS-stimulated mouse J744A.1 cells assessed as increase of Csf1 gene expression at 40 uM after 6 hrs by RT-PCR analysis relative to control; format: functional
[12] = target: Transcription factor p65 (Homo sapiens) (UniProt Q04206); experiment: Inhibition of NF-kappaB p65 activation in HSV1 KOS infected human IOBA-NHC cells assessed as reduction of NF-kappaB p65 translocation at 40 uM after 24 hrs by indirect immunofluorescence assay; format: cell-based
J774.A1 [13] = experiment: Inhibition of LPS-induced […] production in mouse J744A.1 cells at 40 uM after 24 hrs by ELISA; format: functional; conditions: J774.A1, 24 h
[14] = target: Transcription factor p65 (Homo sapiens) (UniProt Q04206); experiment: Increase of NF-kappaB p65-mediated IL-8 release in human IOBA-NHC cells at 40 uM after 24 hrs by ELISA; format: cell-based
[15] = Immunomodulatory activity in HSV1 KOS infected human HCLE cells assessed as increase of IL-1alpha gene expression at 40 uM after 6 hrs by RT-PCR analysis relative to control; format: functional
J774.A1 [16] = experiment: Inhibition of LPS-induced IL-6 production in mouse J744A.1 cells after 24 hrs by ELISA; format: functional, cell-based
[17] = target: Transcription factor p65 (Homo sapiens) (UniProt Q04206); experiment: Inhibition of NF-kappaB p65-mediated IL-8 release in HSV1 KOS infected human HCLE cells at 40 uM after 24 hrs by ELISA; format: cell-based
[18] = Immunomodulatory activity in HSV1 KOS infected human HCLE cells assessed as increase of CXCL2 gene expression at 40 uM after 6 hrs by RT-PCR analysis relative to control; format: functional
[19] = target: Transcription factor p65 (Homo sapiens) (UniProt Q04206); experiment: Effect on NF-kappaB p65-mediated TNFalpha release in human HCLE cells at 40 uM after 24 hrs by ELISA; format: cell-based
[20] = target: Transcription factor p65 (Homo sapiens) (UniProt Q04206); experiment: Inhibition of NF-kappaB p65-mediated IL-6 release in HSV1 KOS infected human IOBA-NHC cells at 40 uM after 24 hrs by ELISA; format: cell-based
J774.A1 [21] = experiment: Immunomodulatory activity in LPS-stimulated mouse J744A.1 cells assessed as increase of CXCL10 gene expression at 40 uM after 6 hrs by RT-PCR analysis relative to control; format: functional
[22] = Immunomodulatory activity in HSV1 KOS infected human HCLE cells assessed as increase of IL-8 gene expression at 40 uM after 6 hrs by RT-PCR analysis relative to control; format: functional
[23] = Immunomodulatory activity in HSV1 KOS infected human HCLE cells assessed as increase of IL-1RL1 gene expression at 40 uM after 6 hrs by RT-PCR analysis relative to control; format: functional
J774.A1 [24] = experiment: Immunomodulatory activity in LPS-stimulated mouse J744A.1 cells assessed as increase of IL-10 gene expression at 40 uM after 6 hrs by RT-PCR analysis relative to control; format: functional
J774.A1 [25] = experiment: Inhibition of LPS-induced TNFalpha production in mouse J744A.1 cells after 24 hrs by ELISA; format: functional, cell-based
J774.A1 [26] = experiment: Immunomodulatory activity in LPS-stimulated mouse J744A.1 cells assessed as increase of Ifi47 gene expression at 40 uM after 6 hrs by RT-PCR analysis relative to control; format: functional
J774.A1 [27] = experiment: Immunomodulatory activity in LPS-stimulated mouse J744A.1 cells assessed as decrease of Il1b gene expression at 40 uM after 6 hrs by RT-PCR analysis relative to control; format: functional
J774.A1 [28] = experiment: Immunomodulatory activity in LPS-stimulated mouse J744A.1 cells assessed as increase of Il23a gene expression at 40 uM after 6 hrs by RT-PCR analysis relative to control; format: functional
J774.A1 [29] = experiment: Immunomodulatory activity in LPS-stimulated mouse J744A.1 cells assessed as increase of Slpi gene expression at 40 uM after 6 hrs by RT-PCR analysis relative to control; format: functional
J774.A1 [30] = experiment: Immunomodulatory activity in LPS-stimulated mouse J744A.1 cells assessed as decrease of Dusp2 gene expression at 40 uM after 6 hrs by RT-PCR analysis relative to control; format: functional
J774.A1 [31] = experiment: Immunomodulatory activity in LPS-stimulated mouse J744A.1 cells assessed as increase of Il12b gene expression at 40 uM after 6 hrs by RT-PCR analysis relative to control; format: functional
J774.A1 [32] = experiment: Immunomodulatory activity in LPS-stimulated mouse J744A.1 cells assessed as increase of CXCL11 gene expression at 40 uM after 6 hrs by RT-PCR analysis relative to control; format: functional
[33] = target: Transcription factor p65 (Homo sapiens) (UniProt Q04206); experiment: Effect on NF-kappaB p65-mediated IL-6 release in human IOBA-NHC cells at 40 uM after 24 hrs by ELISA; format: cell-based
J774.A1 [34] = experiment: Immunomodulatory activity in LPS-stimulated mouse J744A.1 cells assessed as increase of IL-6 gene expression at 40 uM after 6 hrs by RT-PCR analysis relative to control; format: functional
J774.A1 [35] = experiment: Immunomodulatory activity in LPS-stimulated mouse J744A.1 cells assessed as increase of Atf3 gene expression at 40 uM after 6 hrs by RT-PCR analysis relative to control; format: functional

Chain of Transcription factor p65 (Homo sapiens) (Q04206 whole entry): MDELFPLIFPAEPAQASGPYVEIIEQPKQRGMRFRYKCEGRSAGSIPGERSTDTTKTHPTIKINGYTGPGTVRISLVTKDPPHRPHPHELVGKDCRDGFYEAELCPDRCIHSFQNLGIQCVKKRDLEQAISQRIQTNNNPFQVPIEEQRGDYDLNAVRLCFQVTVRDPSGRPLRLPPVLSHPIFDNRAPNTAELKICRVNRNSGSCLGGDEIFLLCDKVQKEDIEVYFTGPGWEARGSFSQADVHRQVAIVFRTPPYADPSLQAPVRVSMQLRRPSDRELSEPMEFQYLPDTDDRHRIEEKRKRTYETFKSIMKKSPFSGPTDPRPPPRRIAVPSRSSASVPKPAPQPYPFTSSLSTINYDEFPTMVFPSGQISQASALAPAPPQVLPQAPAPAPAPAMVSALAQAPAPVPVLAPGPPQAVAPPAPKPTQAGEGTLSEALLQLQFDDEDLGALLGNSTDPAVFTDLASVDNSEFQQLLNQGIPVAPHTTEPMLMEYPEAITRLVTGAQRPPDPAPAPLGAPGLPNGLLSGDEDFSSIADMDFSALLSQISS

With CC[C@@H](C(C)C)[C@H](O)[C@@H](O)[C@@H](C)[C@H]1CC[C@H]2[C@@H]3CCC4=CC(=O)CC[C@]4(C)[C@H]3CC[C@]12C the inhibition [1] was “inactive”, the “fold change (FC)” value (J774.A1 [2]) was 1.95 and the Activity [3] was “inactive”. For the same molecule, the Activity [4] was “Active”, the Activity [5] was “inactive” and the “fold change (FC)” value [6] was 2.2. The “fold change (FC)” value (J774.A1 [7]) was 2.29, the Activity [8] was 87.9% and the inhibition [9] was 5.7%. For the same molecule, the inhibition [10] was “Active”, the “fold change (FC)” value (J774.A1 [11]) was 4.42 and the inhibition [12] was 22.2%. The inhibition at 40 µM (J774.A1 [13]) was 77.5%, the Activity [14] was “Active” and the “fold change (FC)” value [15] was 2.9. For the same molecule, the inhibition (J774.A1 [16]) was “Dose-dependent effect”, the IC50 (J774.A1 [16]; J774.A1, 24 h) was over 40 µM and the inhibition [17] was “Active”. For the same molecule, the “fold change (FC)” value [18] was 2.9, the Activity [19] was “inactive” and the inhibition [20] was “inactive”. For the same molecule, the “fold change (FC)” value (J774.A1 [21]) was 11.41, the “fold change (FC)” value [22] was 4.4 and the “fold change (FC)” value [23] was 5.2. The “fold change (FC)” value (J774.A1 [24]) was 1.27, the inhibition (J774.A1 [25]) was “Dose-dependent effect” and the IC50 (J774.A1 [25]; J774.A1, 24 h) was 7 µM. For the same molecule, the “fold change (FC)” value (J774.A1 [26]) was 2.49, the “fold change (FC)” value (J774.A1 [27]) was 2.58 and the “fold change (FC)” value (J774.A1 [28]) was 3.19. The “fold change (FC)” value (J774.A1 [29]) was 1.53, the “fold change (FC)” value (J774.A1 [30]) was 3.86 and the “fold change (FC)” value (J774.A1 [31]) was 4.19. The “fold change (FC)” value (J774.A1 [32]) was 6.01, the Activity [33] was “inactive” and the “fold change (FC)” value (J774.A1 [34]) was 1.97. For the same molecule, the “fold change (FC)” value (J774.A1 [35]) was 4.41.
With C[C@@H]1C[C@H]2[C@@H]3CCC4=CC(=O)C=C[C@]4(C)[C@@]3(F)[C@@H](O)C[C@]2(C)[C@@]1(O)C(=O)CO the inhibition [1] was “Active”, the Activity [8] was 100% and the inhibition [9] was “inactive”. For the same molecule, the inhibition [10] was “Active”, the inhibition [12] was “inactive” and the inhibition [17] was “Active”. For the same molecule, the inhibition [20] was “Active”.

Reference: ChEMBL document CHEMBL2321679, “Immunomodulatory activity of an anti-HSV-1 synthetic stigmastane analog” (Bioorg Med Chem, 2013)
